This note sets out measurements from patent US10202408B2, “Prodrugs and methods of use thereof” (Health Innovation Ventures B.V., priority 2012, dated 2019).

Entries after “also recorded” stand apart in the source; their conditions may differ.

Data set [1] deals with HCT116 cells engineered to over-express E coli NfsA. Put plainly: Low cell density IC50 (SRB) assay, HCT116 wild type versus E coli NfsA over-expressing cells. Format: cell-based, human. How it is done:
(§1) Compounds were subjected to testing, including low-cell density cytotoxicity assay. Cells (500 cells/well) were seeded in 96-well plates and exposed to prodrug for 4 h, washed, then left to grow for a further 5 days. The SRB assay was employed to determine IC50 values (concentration of prodrug required to inhibit proliferation by 50%). Parental HCT116 cells (HCT116 is a cell line derived from human colon cancer) and cells expressing the example nitroreductase gene nfsA from Escherichia coli were evaluated head-to-head. Parental H1299 cells (H1299 is a cell line derived from lung cancer) and cells expressing the example nitroreductase gene nfsA from Escherichia coli were evaluated head-to-head. Parental HCT116 cells and cells expressing human AKR1C3 were evaluated head-to-head. Parental H1299 cells and cells expressing human AKR1C3 were evaluated head-to-head. In a variation of these assays test compounds were assessed for their ability to give hypoxia-selective cell killing. Here wild type HCT116, H460 (H460 is a cell line derived from lung cancer), H1299 and SiHa cells (SiHa is a cell line derived from cervical cancer) were used in addition to HCT116 cells engineered to over express cytochrome P450 reductase (HCT116 POR), a human one-electron nitroreductase. Low-cell density cytotoxicity assays were performed as above under oxic conditions and compared to experiments where cells were shown 4 h of anoxia during the prodrug exposure period, before being washed free of prodrug and then left to grow for a further 5 days under oxic conditions, as above.

Data set [2] relates to H1299 cells engineered to over-express E coli NfsA. Nature of the data set: Low cell density IC50 (SRB) assay, H1299 wild type versus E coli NfsA over-expressing cells. It is filed as cell-based, human. How it is done:
as §1

In data set [3] the test system is HCT116 MCLs over-expressing AKR1C3. Put plainly: Multicellular layer (MCL) clonogenic assay, HCT116 wild type versus AKR1C3 over-expressing MCLs. It is filed as cell-based, human. How it is done:
(§2) In parallel, a three dimensional high-cell density multi-cellular layer (MCL) clonogenic assay was performed. 1×10^6 cells of either 100% HCT-116^WT or containing 97% WT with a minor 3% HCT-116^NTR cell population were seeded into a collagen-coated Teflon microporous membrane and left to grow for 3 days. MCLs were then exposed to prodrug for 5 h. After treatment, MCLs were enzyme dissociated, diluted in fresh medium and plated to determine clonogenic survival. To discriminate clonogenic activator (NTR+) from target (NTR−) colonies, cells were plated in non-selective medium (total cells) and medium containing 1 μM puromycin (activator cells). Colonies were grown for 10 days before staining. Colonies containing >50 cells were counted. A variation of this assay was also used to assess for evidence of AKR1C3-dependent cytotoxicity. Here either 100% HCT-116W^T or 100% HCT-116^AKR1C3 cells were seeded to provide MCLs that were then exposed to prodrug.

Data set [4] concerns HCT116 cells engineered to over-express human aldo-ketoreductase 1C3 (AKR1C3). Put plainly: Low cell density IC50 (SRB) assay, HCT116 wild type versus AKR1C3 over-expressing cells. It is filed as cell-based. The conditions noted are these: 4 h exposure. How it is done:
as §1

The subject of data set [5] is 15% E coli NfsA-expressing H1299 xenografts. Nature of the data set: Tumour growth delay, 15% E coli NfsA-expressing H1299 xenografts. Format: in vivo, NIH-III mice. How it is done: Animals weighed 18-25 g at the time of tumour inoculation. Tumours were grown subcutaneously on the right flank of mice by inoculating cells grown in tissue culture (1×10^7 cells in 100 uL serum free α-MEM). Tumour sizes were monitored three times weekly using electronic callipers and treatments were initiated once tumour diameter reached ≥7 mm.
Tumour bearing mice were randomised into the appropriate treatment groups and tumour size and body weight recorded. Test compounds were formulated on the day of the experiment and kept in foil-wrapped tubes out of direct fluorescent light. If recruitment of animals occurred over multiple days, the drug stocks were aliquoted into tubes and frozen once at […] until required. Mice were treated with a single (or BID) dose of prodrug by intraperitoneal injection and thereafter tumour size and body weight was monitored every second day. Tumour volume was calculated as π (l×w×w)/6, where l is the major axis and w is the perpendicular minor axis. Animals were culled when they had reached the appropriate survival endpoint or when body weight loss exceeded 20% of the pre-treatment value.

For data set [6], the system named is wild type SiHa tumour xenografts. Put plainly: Excision assay with and without radiation, wild type SiHa tumour xenografts. Format: in vivo, NIH-III nude mice. How it is done: Tumours were grown subcutaneously in the flank of NIH-III mice by inoculating cells grown in tissue culture. Tumours were monitored using electronic calipers. When tumours reached treatment size, mice were randomized to treatment groups (five to seven per group). Compounds were given as single (or BID) intraperitoneal doses alone or 5 min after whole body irradiation (^60Co source). Eighteen hours after treatment, tumours were excised, weighed, minced, dissociated enzymatically, and plated to determine clonogenicity. Clonogens/gram of tissue were calculated relative to controls and effects of treatment were tested for significance (ANOVA with Dunnett's).

In data set [7] the test system is H1299 cells engineered to over-express human aldo-ketoreductase 1C3 (AKR1C3). Put plainly: Low cell density IC50 (SRB) assay, H1299 wild type versus AKR1C3 over-expressing cells. The conditions noted are these: 4 h exposure. It is filed as cell-based. How it is done: as §1
The test system of data set [8] is HCT116 MCLs with 3% E coli NfsA-expressing cells. Put plainly: MCL clonogenic bystander assay, HCT116 MCLs seeded with 3% E coli NfsA-expressing cells. Format: cell-based, human. The conditions noted are these: 97% wild type HCT116, 3% E coli NfsA-expressing cells. How it is done: as §2
Data set [9] concerns bacterial nitroreductases from the NfsA and NfsB families. Nature of the data set: GFP SOS assay with nitroreductase over-expression library. It is filed as cell-based, E. coli strain SOS-R4. The conditions noted are these: 55 candidate nitroreductase library, 6 h challenge. From the text:
The method employed the over-expression of a candidate nitroreductase gene from plasmid pUCX in an SOS reporter strain, as first described in Prosser et al., 2010, Biochem Pharmacol 79, 678-687. In order to enhance the sensitivity of the SOS reporter system, an sfiA::GFP reporter construct was integrated into a CDF-based plasmid (which contains a compatible origin of replication with pUCX) to give the pANODuet reporter plasmid for GFP screening. In addition, nfsA, nfsB, azoR, and nemA genes were deleted to minimise background metabolism, and the tolC gene deleted to minimise efflux of test compounds; this strain was designated SOS-R3. Further improvements were obtained by deleting the mdaB, ycaK, and yieF genes to minimise background metabolism, and by introducing transcriptional terminators to the pANODUET reporter plasmid. This final reporter strain was designated SOS-R4.
Stored glycerols of the 55-membered nitroreductase library in SOS-R4 were thawed and used to inoculate overnight cultures (Lysogeny Broth (LB) amended with 100 μg ml^−1 Ampicillin, 50 μg ml^−1 Spectinomycin, 0.4% glucose) that were incubated at 30° C., 200 rpm for 16 h. The next morning the GFP-SOS assay was commenced by inoculation of 195 μl fresh assay media (LB+100 μg ml^−1 Ampicillin, 50 μg ml^−1 Spectinomycin, 0.2% glucose, 50 μM IPTG) with 15 μl of overnight culture in individual wells of a 96-well plate. Plates were incubated at 30° C., 200 rpm for 2.5 h (pre-challenge period), following which cultures were diluted 1:2 by splitting 50:50 into fresh assay media (+DMSO to 0.5% final concentration) and fresh challenge media (assay media+drug to desired concentration, DMSO to 0.5% final concentration) to final volumes of 80 μl apiece in duplicate on a 384-well plate. Plates were incubated at 30° C., 200 rpm for 6 h (challenge period). GFP expression was determined at excitation 488 nm/emission 509 nm. Turbidity was determined by OD600 and fluorescence data from any replicates not found to be within 15% of the median culture turbidity were discarded.

For data set [10] the test system is unchanged. The description is as above. The conditions noted are these: single and poly mutated variants of NfsA_Ec, single-mutated variant of NfsA_Bs. It is filed as cell-based, E. coli strain SOS-R4.

In the case of `CS(=O)(=O)OCCN(CCBr)c1c(C(=O)NCCO)cc([N+](=O)[O-])cc1[N+](=O)[O-]` [PR-104A, 2-((2-bromoethyl)(2-((2-hydroxyethyl)carbamoyl)-4,6-dinitrophenyl)amino)ethyl methanesulfonate, reference compound], the “E coli NfsA-mediated cytotoxicity (IC50 wild type versus NfsA)” value in [1] and in data set [2] was “produce E coli NfsA-mediated cytotoxicity” throughout.
Regarding `CCN(CCO)C(=O)c1cc([N+](=O)[O-])cc([N+](=O)[O-])c1N(CCBr)CCBr` [compound 7, reference compound], the “AKR1C3-dependent clonogenic cell kill in MCLs” value in data set [3] is reported as “capable of producing AKR1C3-dependent cell ablation”.
As for `CC(C)N(CCO)C(=O)c1cc([N+](=O)[O-])cc([N+](=O)[O-])c1N(CCBr)CCBr` [compound 8, reference compound], the “AKR1C3-mediated cytotoxicity (IC50 wild type versus AKR1C3)” value in [4] is “appear negative for AKR1C3 dependent cell sensitivity”.
In the case of `CCCN(CCO)C(=O)c1cc([N+](=O)[O-])cc([N+](=O)[O-])c1N(CCBr)CCBr` [compound 9, reference compound], the “AKR1C3-mediated cytotoxicity (IC50 wild type versus AKR1C3)” value in data set [4] was “appears to be AKR1C3-negative; also recorded: appear negative for AKR1C3 dependent cell sensitivity”. In addition, the “AKR1C3-dependent clonogenic cell kill in MCLs” value in data set [3] is reported as “capable of producing AKR1C3-dependent cell ablation”.
With `CCS(=O)(=O)c1cc([N+](=O)[O-])c(C(=O)N(C)CCOP(=O)(O)O)cc1N(CCBr)CCBr` [compound 11, 2-(5-(bis(2-bromoethyl)amino)-4-(ethylsulfonyl)-N-methyl-2-nitrobenzamido)ethyl dihydrogen phosphate], in data set [5] (mixed HCT116 and H1299 xenografts, 15% E coli NfsA cells, single (or BID) intraperitoneal dose), the tumour growth delay result was “profound tumour growth delay”. The “E coli NfsA mediated anti-tumour efficacy (mean tumour volume)” value in [5] (single dose, 10, 22, 60 and 11 at 750, 422, 1330 and 1330 umol/kg) was “display significant E coli NfsA mediated anti-tumour efficacy”. Also, the “cell killing in combination with radiation versus radiation alone” value in data set [6] (HCT116 POR and wild type SiHa xenografts, 10 or 15Gy, single (or BID) intraperitoneal dose) was “increased cell killing above what could be achieved with radiation alone”. In addition, in [6] (with or without 10Gy radiation, 22 at 422, 300 and 11 at 1330, 23 at 1000 umol/kg), the “hypoxic cell kill in vivo (log cell kill)” value is on record as “significant hypoxic cell kill in vivo”.
Regarding `CC(C)N1CCN(C(=O)c2cc(N(CCBr)CCBr)c(S(C)(=O)=O)cc2[N+](=O)[O-])CC1` [compound 24, (5-(bis(2-bromoethyl)amino)-4-(methylsulfonyl)-2-nitrophenyl)(4-isopropylpiperazin-1-yl)methanone], the “AKR1C3-mediated cytotoxicity (IC50 wild type versus AKR1C3)” value in [4] and in [7] was “less susceptible to AKR1C3-mediated cytotoxicity than PR-104A” each time. Besides, in [3], the “AKR1C3-dependent clonogenic cell kill in MCLs” value is given as “do not cause AKR1C3-dependant cytotoxicity”. In addition, the “E coli NfsA-mediated cytotoxicity (IC50 wild type versus NfsA)” value in data set [1] and in data set [2] was “produce E coli NfsA-mediated cytotoxicity” in each case. Besides, the “bystander cell killing in MCLs” value in data set [8] is listed as “display evidence of metabolism by the 3% E coli NfsA-expressing cells with bystander cell killing of the 97% non-expressing neighbour cells”. In data set [9], the “metabolism by bacterial nitroreductases (SOS response)” value was “substrates for multiple wild type and mutant bacterial nitroreductases from the NfsA and NfsB families”. For the same compound, in [10], the “activity with mutated nitroreductase variants” value is recorded as “demonstrated”.
`CS(=O)(=O)OCCN(CCBr)c1ccc([N+](=O)[O-])cc1C(=O)NCCO` [compound 64, 2-((2-bromoethyl)(2-((2-hydroxyethyl)carbamoyl)-4-nitrophenyl)amino)ethyl methanesulfonate]: in [4], the “AKR1C3-mediated cytotoxicity (IC50 wild type versus AKR1C3)” value was “less susceptible to AKR1C3-mediated cytotoxicity than PR-104A”. In data set [3], the “AKR1C3-dependent clonogenic cell kill in MCLs” value is on record as “do not cause AKR1C3-dependant cytotoxicity”. Moreover, the “E coli NfsA-mediated cytotoxicity (IC50 wild type versus NfsA)” value in [1] and in data set [2] was “produce E coli NfsA-mediated cytotoxicity” each time. The “bystander cell killing in MCLs” value in [8] was “display evidence of metabolism by the 3% E coli NfsA-expressing cells with bystander cell killing of the 97% non-expressing neighbour cells”. Further, the “metabolism by bacterial nitroreductases (SOS response)” value in data set [9] was “substrates for multiple wild type and mutant bacterial nitroreductases from the NfsA and NfsB families”. Further, the “activity with mutated nitroreductase variants” value in data set [10] was “demonstrated”.
